Consider 14 molecules from patent US20220048915A1 (SHANGHAI PHARMACEUTICALS HOLDING CO., LTD., priority 2018, published 2022).

pIC50: −log10 of the molar value.

One data set has as its system BV-2 cells. In words: Inhibition of inflammation in LPS-stimulated BV-2 cells (ELISA of inflammatory factors). It counts as cell-based. Conditions: Mus musculus, 100 ng/mL LPS 4 hours; for Emax: read-out: BV-2 Max Inh. (%); for pIC50: read-out: BV-2 Rf IC50. The method, then:
Normal cultured 8th passage BV-2 cells were taken, and inoculated separately in 96-well plates at a certain cell density. The cell culture plates were cultured at 37° C. and 5% CO2 for 24 hours.
After inoculating the plate for 24 hours, the cell culture medium was removed, and then 100 μL of a 4-fold gradient dilution compound starting from 10,000 nM prepared in DMEM+10% FBS, where High control and Low control contained 0.1% DMSO without compound. With 100 μL per well, the cell culture plate was cultured at 37° C. with 5% CO2 for one hour.
The compound-containing cultures were removed. 100 ng/mL of LPS was prepared with DMEM+10% FBS culture medium, and then the compound was diluted in a 4-fold gradient from 10,000 nM with LPS-containing culture medium. In low control, the compound was replaced with 0.1% DMSO. In High control, 0.1% DMSO was prepared with culture medium without LPS. 100 μL per well, and the cell culture plates were cultured at 37° C. with 5% CO2 for 4 hours.
After 4 hours of LPS stimulation, 110 μL of the culture solution was aspirated, and centrifuged at 2000 rpm for 2 minutes. A further 90 μl of supernatant was aspirated and immediately put into −20° C. for freezing.
ELISA kits were used to detect the expression of inflammatory factors such as IL-10, TNFα, etc. The OD450 signal values were measured by microplate reader. The in vitro inhibitory activity of the compounds was calculated according to the following formula: Inhibition rate: Inhibition rate (%)=(signal value of control−signal value of administration)/(high signal value of control−low signal value of control)×100%. And according to the inhibition rate of each concentration, Graphpad Prism 5.0 was used to curve fit the […] signal values at each concentration and calculate the corresponding IC50, which is shown in Table 1.

Another data set has as its target p38α (Homo sapiens, UniProt Q16539). Put plainly: In vitro inhibition of p38 kinase (LANCE Ultra TR-FRET). The format is biochemical. The following applies: read-out: Kinase in vitro IC50(nM) p38α. A general note: Time-resolved FRET reads energy transfer from a long-lived donor to a nearby acceptor.
In another data set the target is p38β (Homo sapiens, UniProt Q15759). The description is as above. Conditions: read-out: Kinase in vitro IC50(nM) p38β. It counts as biochemical.
Chain of p38β (Q15759 whole entry): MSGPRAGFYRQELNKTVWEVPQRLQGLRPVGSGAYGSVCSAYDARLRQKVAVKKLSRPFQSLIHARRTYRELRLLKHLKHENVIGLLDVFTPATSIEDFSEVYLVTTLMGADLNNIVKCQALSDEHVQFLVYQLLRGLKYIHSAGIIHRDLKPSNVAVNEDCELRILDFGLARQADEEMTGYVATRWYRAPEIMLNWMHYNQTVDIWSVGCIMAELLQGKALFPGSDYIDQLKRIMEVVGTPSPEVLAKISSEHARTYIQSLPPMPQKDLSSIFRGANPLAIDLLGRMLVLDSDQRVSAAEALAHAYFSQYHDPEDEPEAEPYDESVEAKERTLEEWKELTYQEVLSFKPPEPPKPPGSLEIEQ
The target of the next data set is T1, p38γ (Homo sapiens, UniProt P53778).
T1 sequence (P53778 1-367): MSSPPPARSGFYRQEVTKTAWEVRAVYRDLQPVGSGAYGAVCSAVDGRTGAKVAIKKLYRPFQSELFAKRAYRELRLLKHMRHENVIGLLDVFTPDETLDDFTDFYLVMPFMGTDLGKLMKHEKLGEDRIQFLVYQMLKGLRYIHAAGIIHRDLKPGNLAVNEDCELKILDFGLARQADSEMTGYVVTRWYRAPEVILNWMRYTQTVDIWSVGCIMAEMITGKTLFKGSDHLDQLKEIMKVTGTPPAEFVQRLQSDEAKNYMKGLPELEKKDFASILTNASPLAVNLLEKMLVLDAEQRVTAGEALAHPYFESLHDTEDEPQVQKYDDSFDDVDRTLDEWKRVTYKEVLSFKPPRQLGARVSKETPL
The description is as above. The following applies: read-out: Kinase in vitro IC50(nM) p38γ. The format is biochemical. As to the method: 10 mM of the storage solution of the test compound was taken and placed in a 96-well compound plate, and using DMSO for the compound at an initial concentration of 100×, which was then used as the first concentration and then carried out a 3-fold gradient dilution with DMSO for a total of 10 concentrations. After that, 1 μL of gradient dilutions were added to 19 μL of 1× reaction buffer to prepare 5× compound for later use. […] To the compound-free control well was added 2 μL of the following liquid: 19 μL of 1× reaction buffer with addition of 1 μL of DMSO. To the Min control well was added 2 μL of 250 mM EDTA.
1× of LANCE® Detection value Buffer was used to prepare a 2×Antibody for use, and the amount was 5 μL per well, at the same time 10 mM EDTA was prepared for later use. After the enzyme reaction was carried out for 30 minutes, 5 μL 10 mM EDTA was added to the 384-well plate and the reaction was carried out at room temperature for 5 minutes. Afterwards, 5 μL LANCE® Ultra Europium-anti-phospho-eIF4E-binding protein 1 (Thr37/46) was added to the 384-well plate and the reaction was carried out at room temperature for one hour.

A short description of data set [1]: Pharmacokinetic properties in mice. The format is in vivo, ICR mice. The following applies: for absorption compared with the positive compound VX-745 at the same dose: 10 mg/kg; for Thalf (iv): iv 3 mg/kg; for Cmax / MRT / Tmax: male, ICR, mouse, plasma; for Cmax / MRT / Tmax / AUClast (po): po 10 mg/kg; for BA: po 10 mg/kg vs iv 3 mg/kg; for AUClast (po): 5-1440 minutes. The method, then: Forty-eight male ICR mice, weighing 18-22 g (provided by Shanghai Xipuerbikai Laboratory Animal Co., Ltd, Certificate No.: 20130016008116). The mice were […] for 12-16 hours before the experiment but water was allowed.
Blood samples were collected from the fundus vein of mice before and at 2, 5, 15, 30, 60, 90, 120, 240, 480, 600, and 1440 minutes of the administration, respectively.
Blood samples were collected from the fundus vein of mice before and at 5, 15, 30, 60, 90, 120, 240, 480 and 1440 minutes of administration, respectively.
2-3 time points were taken for each mouse. The mice were sacrificed at 5, 15, 30, 60 and 1440 minutes after the administration (3 mice per time point), and the brains were taken, rinsed with saline, dried on filter paper and weighed.
Blood samples were centrifuged at 8000 rpm for 5 minutes, and supernatant plasma was taken. To 50 μL of plasma samples was added 300 μL of acetonitrile containing internal standard (propranolol, 25 ng/mL) to precipitate the protein. After vortexing for 10 minutes and centrifuging at 6000 g and 4° C. for 10 minutes, the supernatant was taken and placed in a 96-well plate for determination of drug concentration in plasma by UPLC/MS-MS.

The pIC50 is the negative decadic logarithm of the IC50, by convention in mol/L. As a reminder, the IC50 is the concentration that gives 50% inhibition. Broadly, the Cmax is the highest concentration seen after dosing. Broadly, the MRT is a mean duration of stay, worked out from the concentration-time curve. The Tmax is the time from dosing to the highest level.

Chain of p38α (Q16539 whole entry): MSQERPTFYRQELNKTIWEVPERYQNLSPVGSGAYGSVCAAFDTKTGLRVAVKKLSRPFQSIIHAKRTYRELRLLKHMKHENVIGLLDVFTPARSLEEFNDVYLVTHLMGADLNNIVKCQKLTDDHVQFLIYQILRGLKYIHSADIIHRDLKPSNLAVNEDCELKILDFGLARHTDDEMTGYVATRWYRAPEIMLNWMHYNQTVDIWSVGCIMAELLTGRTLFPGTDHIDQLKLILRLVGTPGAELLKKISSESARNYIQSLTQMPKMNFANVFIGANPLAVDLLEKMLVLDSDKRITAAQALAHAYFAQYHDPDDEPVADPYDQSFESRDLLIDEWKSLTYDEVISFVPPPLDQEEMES

In the case of `O=c1ncn2nc(Oc3ccc(F)c(Br)c3)ccc2c1-c1c(Cl)cccc1Cl` [Compound I-5, 2-(3-bromo-4-fluorophenoxy)-5-(2,6-dichlorophenyl)-6H-pyrimido[1,6-b]pyridazin-6-one], the Emax with BV-2 cells came out at 44%. Also, the pIC50 in the data set with BV-2 cells is 7.03. The IC50 at p38α is 49.3 nM; on p38β it was 389 nM; at p38γ, > 3330 nM.
In the case of `O=c1ncn2nc(Oc3ccc(Cl)cc3F)ccc2c1-c1c(Cl)cccc1Cl` [Compound I-6, 2-(4-chloro-2-fluorophenoxy)-5-(2,6-dichlorophenyl)-6H-pyrimido[1,6-b]pyridazin-6-one], the Emax in the data set on BV-2 cells came to 44.7%. Further, the pIC50 in the data set on BV-2 cells was 7.79. Also, the figures for the IC50 at p38α, at p38β and on p38γ were 13.6 nM, 109 nM and > 3330 nM, respectively.
On to `O=c1ncn2nc(Oc3cccc(Br)c3)ccc2c1-c1c(Cl)cccc1Cl` [Compound I-10, 2-(3-bromophenoxy)-5-(2,6-dichlorophenyl)-6H-pyrimido[1,6-b]pyridazin-6-one], for which the Emax with BV-2 cells was -60%. Also, the pIC50 in the data set with BV-2 cells was 7.12. The IC50 on p38α is 60.6 nM; on p38β, 434 nM; at p38γ, > 3330 nM.
For the molecule `O=c1ncn2nc(Oc3cccc(Cl)c3Cl)ccc2c1-c1c(Cl)cccc1Cl` [Compound I-12, 2-(2,3-dichlorophenoxy)-5-(2,6-dichlorophenyl)-6H-pyrimido[1,6-b]pyridazin-6-one], the Emax in the data set on BV-2 cells was found to be 49.5%. The pIC50 with BV-2 cells is 6.75. Moreover, the IC50 on p38α is 32.8 nM; at p38β, 302 nM; at p38γ it was > 3330 nM.
In the case of `O=c1ncn2nc(Oc3ccc(Cl)cc3Br)ccc2c1-c1c(Cl)cccc1Cl` [Compound I-15, 2-(2-bromo-4-chlorophenoxy)-5-(2,6-dichlorophenyl)-6H-pyrimido[1,6-b]pyridazin-6-one], the Emax in the data set on BV-2 cells was 46%. The pIC50 in the data set with BV-2 cells was 6.88. Besides, the half-inhibitory concentration (IC50) was 41.3 nM at p38α, 263 nM at p38β and > 3330 nM at p38γ.
Consider `O=c1ncn2nc(Oc3cc(Br)ccc3Cl)ccc2c1-c1c(Cl)cccc1Cl` [Compound I-16, 2-(5-bromo-2-chlorophenoxy)-5-(2,6-dichlorophenyl)-6H-pyrimido[1,6-b]pyridazin-6-one], for which the Emax in the data set on BV-2 cells is 44.2%. Further, the pIC50 with BV-2 cells was 8.21. The IC50 on p38α was 25.9 nM; on p38β it was 109 nM; on p38γ, > 3330 nM.
On to `O=c1ncn2nc(Oc3ccccc3Br)ccc2c1-c1c(Cl)cccc1Cl` [Compound I-17, 2-(2-bromophenoxy)-5-(2,6-dichlorophenyl)-6H-pyrimido[1,6-b]pyridazin-6-one], for which, in the data set on BV-2 cells, the Emax is -60%. Further, the negative logarithm of the IC50 (pIC50) in the data set on BV-2 cells is 7.02. Also, the IC50 at p38α was 34.8 nM; at p38β it was 316 nM; on p38γ it was > 3330 nM.
For `O=c1ncn2nc(Oc3ccc(F)cc3Cl)ccc2c1-c1c(Cl)cccc1Cl` [Compound I-18, 2-(2-chloro-4-fluorophenoxy)-5-(2,6-dichlorophenyl)-6H-pyrimido[1,6-b]pyridazin-6-one], the Emax in the data set with BV-2 cells was 50.6%. Also, the pIC50 in the data set on BV-2 cells is 8.07. Further, the results for the IC50 on p38α, at p38β and at p38γ were 14.8 nM, 97.1 nM and > 3330 nM, respectively.
For `O=c1ncn2nc(Oc3ccc(F)cc3F)ccc2c1-c1cc(Cl)ccc1Cl` [Compound I-46, 5-(2,5-dichlorophenyl)-2-(2,4-difluorophenoxy)-6H-pyrimido[1,6-b]pyridazin-6-one], at p38α, the IC50 came to 19.7 nM. Moreover, the IC50 on p38β is 403 nM. Also, the IC50 at p38γ is > 3330 nM. In addition, in data set [1], the “absorption compared with the positive compound VX-745 at the same dose” value is “better”, the “Thalf (iv)” value amounted to 3.96 h, the Cmax was determined as 891 ng/mL and the MRT came to 4.86 h. For the same molecule, in data set [1], the time to peak (Tmax) was 2 h, the BA is on record as 119.3% and the “AUClast (po)” value is recorded as 4016 (h)*(ng/mL).
In the case of `Cc1ccccc1-c1c(=O)ncn2nc(Oc3ccc(F)cc3F)ccc12` [Compound I-50, 2-(2,4-difluorophenoxy)-5-(o-methylphenyl)-6H-pyrimido[1,6-b]pyridazin-6-one], on p38α, the IC50 was found to be 34.2 nM. For the same molecule, at p38β, the IC50 came to 1090 nM. Moreover, the IC50 at p38γ was > 3330 nM. In data set [1], the “absorption compared with the positive compound VX-745 at the same dose” value was “better”, the “Thalf (iv)” value is listed as 1.93 h, the Cmax was found to be 928 ng/mL and the MRT was 3.05 h. Further, in data set [1], the time to peak (Tmax) amounted to 0.83 h, the BA was 84.9% and the “AUClast (po)” value is listed as 3107 (h)*(ng/mL).
`O=c1ncn2nc(Oc3ccc(F)cc3F)ccc2c1-c1c(F)cc(F)cc1F` [Compound I-57, 5-(2,4,6-trifluorophenyl)-2-(2,4-difluorophenoxy)-6H-pyrimido[1,6-b]pyridazin-6-one]: the IC50 at p38α was 22.7 nM; at p38β, 614 nM; at p38γ, > 3330 nM.
Take `O=c1ncn2nc(Oc3ccc(F)cc3F)ccc2c1-c1ccc(Cl)c(Cl)c1` [Compound I-58, 5-(3,4-dichlorophenyl)-2-(2,4-difluorophenoxy)-6H-pyrimido[1,6-b]pyridazin-6-one]: the IC50 is 137 nM on p38α, > 3330 nM at p38β and > 3330 nM on p38γ.
For `O=c1ncn2nc(Oc3ccc(F)cc3F)c(-c3ccncc3)cc2c1-c1c(Cl)cccc1Cl` [Compound I-59, 5-(2,6-dichlorophenyl)-2-(2,4-difluorophenoxy)-3-(pyridin-4-yl)-6H-pyrimido[1,6-b]pyridazin-6-one], the IC50 at p38α was 81.3 nM; at p38β it was 1220 nM; at p38γ, > 3330 nM.
Regarding `O=c1ncn2nc(Oc3ccc(F)cc3F)c(N3CCOCC3)cc2c1-c1c(Cl)cccc1Cl` [Compound I-61, 5-(2,6-dichlorophenyl)-2-(2,4-difluorophenoxy)-3-morpholinyl-6H-pyrimido[1,6-b]pyridazin-6-one], the IC50 on p38α was 11.7 nM; on p38β it was 32.7 nM; at p38γ, > 3330 nM.
